# Test system: persian speedwell
# Experiment: Test Example 5: herbicidal effect by foliage application, plastic box (Table 20, symbol R)
# Type: in vivo, Persian speedwell (Veronica persica)
# Conditions: foliage application, AAH 320 g/ha, three weeks after application
# Procedure, shortened: (§1)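 Plants sown in sterilized diluvial soil and grown 14 days in a greenhouse at 25° C to 30° C, then sprayed on the foliage with the compound's emulsion diluted in water to a predetermined herbicide amount. Injury to weeds and crops scored three weeks after application on a visual rating scale.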
row,SMILES,"R: persian speedwell, herbicidal effect"
1,CCCC(=O)Oc1c(C)nn(C)c(=O)c1-c1c(-c2ccc3c(c2)OCCO3)sc2ccccc12 [1-090],5 (Herbicidal rate of 90% or more (almost completely withered))
2,COC(=O)Oc1c(C)nn(C)c(=O)c1-c1c(-c2ccc3c(c2)OCCO3)sc2ccccc12 [1-091],5 (Herbicidal rate of 90% or more (almost completely withered))
3,Cc1nn(C)c(=O)c(-c2c(-c3ccc4c(c3)OCCO4)sc3ccccc23)c1OC(=O)SC(C)(C)C [1-092],5 (Herbicidal rate of 90% or more (almost completely withered))

# Test system: wild oat
# Experiment: Test Example 4: herbicidal effect by soil treatment (Table 19, symbol I)
# Type: in vivo, wild oat (Avena fatua)
# Conditions: amount of applied herbicide 320 g/ha
# Procedure, shortened: (§2)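 Three weeks of greenhouse growth at 25° C. to 30° C. followed a uniform surface spray of water-diluted emulsion at a predetermined herbicide amount. Seeds had been sown beforehand under about 1.5 cm of sterilized diluvial soil. Grading followed criteria set out in an earlier test.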
row,SMILES,"herbicidal effect rating, I: wild oat"
1,CCCC(=O)Oc1c(C)nn(C)c(=O)c1-c1c(-c2ccc3c(c2)OCCO3)sc2ccccc12 [1-090],0 (Herbicidal rate of 5% or less (almost no effect))
2,COC(=O)Oc1c(C)nn(C)c(=O)c1-c1c(-c2ccc3c(c2)OCCO3)sc2ccccc12 [1-091],0 (Herbicidal rate of 5% or less (almost no effect))
3,Cc1nn(C)c(=O)c(-c2c(-c3ccc4c(c3)OCCO4)sc3ccccc23)c1OC(=O)SC(C)(C)C [1-092],0 (Herbicidal rate of 5% or less (almost no effect))

# Test system: redroot pigweed
# Experiment: Test Example 4: herbicidal effect by soil treatment (Table 19, symbol N)
# Type: in vivo, redroot pigweed (Amaranthus retroflexus)
# Conditions: amount of applied herbicide 320 g/ha
# Procedure, shortened: as §2
row,SMILES,"herbicidal effect rating, N: redroot pigweed"
1,CCCC(=O)Oc1c(C)nn(C)c(=O)c1-c1c(-c2ccc3c(c2)OCCO3)sc2ccccc12 [1-090],2 (Herbicidal rate of 20% or more and less than 40%)
2,COC(=O)Oc1c(C)nn(C)c(=O)c1-c1c(-c2ccc3c(c2)OCCO3)sc2ccccc12 [1-091],3 (Herbicidal rate of 40% or more and less than 70%)
3,Cc1nn(C)c(=O)c(-c2c(-c3ccc4c(c3)OCCO4)sc3ccccc23)c1OC(=O)SC(C)(C)C [1-092],0 (Herbicidal rate of 5% or less (almost no effect))

# Test system: chickweed
# Experiment: Test Example 5: herbicidal effect by foliage application, plastic box (Table 20, symbol P)
# Type: in vivo, common chickweed (Stellaria media)
# Conditions: foliage application, AAH 320 g/ha, three weeks after application
# Procedure, shortened: as §1
row,SMILES,"P: chickweed, herbicidal effect"
1,CCCC(=O)Oc1c(C)nn(C)c(=O)c1-c1c(-c2ccc3c(c2)OCCO3)sc2ccccc12 [1-090],4 (Herbicidal rate of 70% or more and less than 90%)
2,COC(=O)Oc1c(C)nn(C)c(=O)c1-c1c(-c2ccc3c(c2)OCCO3)sc2ccccc12 [1-091],5 (Herbicidal rate of 90% or more (almost completely withered))
3,Cc1nn(C)c(=O)c(-c2c(-c3ccc4c(c3)OCCO4)sc3ccccc23)c1OC(=O)SC(C)(C)C [1-092],5 (Herbicidal rate of 90% or more (almost completely withered))

# Test system: green foxtail
# Experiment: Test Example 5: herbicidal effect by foliage application, plastic box (Table 20, symbol G)
# Type: in vivo, green foxtail (Setaria viridis)
# Conditions: foliage application, AAH 320 g/ha, three weeks after application
# Procedure, shortened: as §1
row,SMILES,"G: green foxtail, herbicidal effect"
1,CCCC(=O)Oc1c(C)nn(C)c(=O)c1-c1c(-c2ccc3c(c2)OCCO3)sc2ccccc12 [1-090],5 (Herbicidal rate of 90% or more (almost completely withered))
2,COC(=O)Oc1c(C)nn(C)c(=O)c1-c1c(-c2ccc3c(c2)OCCO3)sc2ccccc12 [1-091],5 (Herbicidal rate of 90% or more (almost completely withered))
3,Cc1nn(C)c(=O)c(-c2c(-c3ccc4c(c3)OCCO4)sc3ccccc23)c1OC(=O)SC(C)(C)C [1-092],3 (Herbicidal rate of 40% or more and less than 70%)

# Test system: southern crabgrass
# Experiment: Test Example 5: herbicidal effect by foliage application, plastic box (Table 20, symbol F)
# Type: in vivo, southern crabgrass (Digitaria ciliaris)
# Conditions: foliage application, AAH 320 g/ha, three weeks after application
# Procedure, shortened: as §1
row,SMILES,"F: southern crabgrass, herbicidal effect"
1,CCCC(=O)Oc1c(C)nn(C)c(=O)c1-c1c(-c2ccc3c(c2)OCCO3)sc2ccccc12 [1-090],3 (Herbicidal rate of 40% or more and less than 70%)
2,COC(=O)Oc1c(C)nn(C)c(=O)c1-c1c(-c2ccc3c(c2)OCCO3)sc2ccccc12 [1-091],5 (Herbicidal rate of 90% or more (almost completely withered))
3,Cc1nn(C)c(=O)c(-c2c(-c3ccc4c(c3)OCCO4)sc3ccccc23)c1OC(=O)SC(C)(C)C [1-092],3 (Herbicidal rate of 40% or more and less than 70%)

# Test system: barnyard grass
# Experiment: Test Example 5: herbicidal effect by foliage application, plastic box (Table 20, symbol H)
# Type: in vivo, barnyard grass (Echinochloa crus-galli)
# Conditions: foliage application, AAH 320 g/ha, three weeks after application
# Procedure, shortened: as §1
row,SMILES,"H: barnyard grass, herbicidal effect"
1,CCCC(=O)Oc1c(C)nn(C)c(=O)c1-c1c(-c2ccc3c(c2)OCCO3)sc2ccccc12 [1-090],4 (Herbicidal rate of 70% or more and less than 90%)
2,COC(=O)Oc1c(C)nn(C)c(=O)c1-c1c(-c2ccc3c(c2)OCCO3)sc2ccccc12 [1-091],5 (Herbicidal rate of 90% or more (almost completely withered))
3,Cc1nn(C)c(=O)c(-c2c(-c3ccc4c(c3)OCCO4)sc3ccccc23)c1OC(=O)SC(C)(C)C [1-092],3 (Herbicidal rate of 40% or more and less than 70%)

# Test system: barnyard grass
# Experiment: Test Example 4: herbicidal effect by soil treatment (Table 19, symbol H)
# Type: in vivo, barnyard grass (Echinochloa crus-galli)
# Conditions: amount of applied herbicide 320 g/ha
# Procedure, shortened: as §2
row,SMILES,"herbicidal effect rating, H: barnyard grass"
1,CCCC(=O)Oc1c(C)nn(C)c(=O)c1-c1c(-c2ccc3c(c2)OCCO3)sc2ccccc12 [1-090],1 (Herbicidal rate of 5% or more and less than 20%)
2,COC(=O)Oc1c(C)nn(C)c(=O)c1-c1c(-c2ccc3c(c2)OCCO3)sc2ccccc12 [1-091],5 (Herbicidal rate of 90% or more (almost completely withered))
3,Cc1nn(C)c(=O)c(-c2c(-c3ccc4c(c3)OCCO4)sc3ccccc23)c1OC(=O)SC(C)(C)C [1-092],0 (Herbicidal rate of 5% or less (almost no effect))

# Test system: windgrass
# Experiment: Test Example 5: herbicidal effect by foliage application, plastic box (Table 20, symbol L)
# Type: in vivo, windgrass (Apera spica-venti)
# Conditions: foliage application, AAH 320 g/ha, three weeks after application
# Procedure, shortened: as §1
row,SMILES,"L: windgrass, herbicidal effect"
1,CCCC(=O)Oc1c(C)nn(C)c(=O)c1-c1c(-c2ccc3c(c2)OCCO3)sc2ccccc12 [1-090],0 (Herbicidal rate of 5% or less (almost no effect))
2,COC(=O)Oc1c(C)nn(C)c(=O)c1-c1c(-c2ccc3c(c2)OCCO3)sc2ccccc12 [1-091],1 (Herbicidal rate of 5% or more and less than 20%)
3,Cc1nn(C)c(=O)c(-c2c(-c3ccc4c(c3)OCCO4)sc3ccccc23)c1OC(=O)SC(C)(C)C [1-092],0 (Herbicidal rate of 5% or less (almost no effect))

# Test system: wild oat
# Experiment: Test Example 5: herbicidal effect by foliage application, plastic box (Table 20, symbol I)
# Type: in vivo, wild oat (Avena fatua)
# Conditions: foliage application, AAH 320 g/ha, three weeks after application
# Procedure, shortened: as §1
row,SMILES,"I: wild oat, herbicidal effect"
1,CCCC(=O)Oc1c(C)nn(C)c(=O)c1-c1c(-c2ccc3c(c2)OCCO3)sc2ccccc12 [1-090],0 (Herbicidal rate of 5% or less (almost no effect))
2,COC(=O)Oc1c(C)nn(C)c(=O)c1-c1c(-c2ccc3c(c2)OCCO3)sc2ccccc12 [1-091],2 (Herbicidal rate of 20% or more and less than 40%)
3,Cc1nn(C)c(=O)c(-c2c(-c3ccc4c(c3)OCCO4)sc3ccccc23)c1OC(=O)SC(C)(C)C [1-092],0 (Herbicidal rate of 5% or less (almost no effect))

# Test system: oval-leafed pondweed
# Experiment: Test Example 2: herbicidal activity, application during weed generation under submerged conditions (Table 17, symbol C)
# Type: in vivo, oval-leafed pondweed (Monochoria vaginalis)
# Conditions: AAH 320 g/ha; application during weed generation, submerged conditions
# Procedure, shortened: (§3)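 In this pot test, flooded alluvial soil (water depth 4 cm) holds all three species sown as a mixture. Once seedlings have one to two leaves, the compound's emulsion, thinned with water to the intended dose, is poured on the water; grading follows after three weeks on the earlier criteria.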
row,SMILES,"herbicidal effect rating, C: oval-leafed pondweed"
1,CCCC(=O)Oc1c(C)nn(C)c(=O)c1-c1c(-c2ccc3c(c2)OCCO3)sc2ccccc12 [1-090],4 (Herbicidal rate of 70% or more and less than 90%)
2,COC(=O)Oc1c(C)nn(C)c(=O)c1-c1c(-c2ccc3c(c2)OCCO3)sc2ccccc12 [1-091],4 (Herbicidal rate of 70% or more and less than 90%)
3,Cc1nn(C)c(=O)c(-c2c(-c3ccc4c(c3)OCCO4)sc3ccccc23)c1OC(=O)SC(C)(C)C [1-092],0 (Herbicidal rate of 5% or less (almost no effect))

# Test system: oval-leafed pondweed
# Experiment: Test Example 1: herbicidal activity, application before weed generation under submerged conditions (Table 16, symbol C)
# Type: in vivo, oval-leafed pondweed (Monochoria vaginalis)
# Conditions: 320 g/ha applied herbicide
# Procedure, shortened: (§4)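 Emulsion formulation, water-diluted to set dose, was put onto the flooded surface (4 cm depth, alluvial soil) the same day weeds were sown and 2.5-leaf rice transplanted. After 3 weeks at 25-30 °C under glass, each species was rated 0 (≤5% kill) to 5 (≥90% kill).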
row,SMILES,Herbicidal effect on C: oval-leafed pondweed (grade 0-5)
1,CCCC(=O)Oc1c(C)nn(C)c(=O)c1-c1c(-c2ccc3c(c2)OCCO3)sc2ccccc12 [1-090],5 (Herbicidal rate of 90% or more (almost completely withered))
2,COC(=O)Oc1c(C)nn(C)c(=O)c1-c1c(-c2ccc3c(c2)OCCO3)sc2ccccc12 [1-091],4 (Herbicidal rate of 70% or more and less than 90%)
3,Cc1nn(C)c(=O)c(-c2c(-c3ccc4c(c3)OCCO4)sc3ccccc23)c1OC(=O)SC(C)(C)C [1-092],2 (Herbicidal rate of 20% or more and less than 40%)

# Test system: Japanese bulrush
# Experiment: Test Example 2: herbicidal activity, application during weed generation under submerged conditions (Table 17, symbol B)
# Type: in vivo, Japanese bulrush (Schoenoplectus juncoides)
# Conditions: AAH 320 g/ha; application during weed generation, submerged conditions
# Procedure, shortened: as §3
row,SMILES,"herbicidal effect rating, B: Japanese bulrush"
1,CCCC(=O)Oc1c(C)nn(C)c(=O)c1-c1c(-c2ccc3c(c2)OCCO3)sc2ccccc12 [1-090],3 (Herbicidal rate of 40% or more and less than 70%)
2,COC(=O)Oc1c(C)nn(C)c(=O)c1-c1c(-c2ccc3c(c2)OCCO3)sc2ccccc12 [1-091],4 (Herbicidal rate of 70% or more and less than 90%)
3,Cc1nn(C)c(=O)c(-c2c(-c3ccc4c(c3)OCCO4)sc3ccccc23)c1OC(=O)SC(C)(C)C [1-092],1 (Herbicidal rate of 5% or more and less than 20%)

# Test system: green foxtail
# Experiment: Test Example 4: herbicidal effect by soil treatment (Table 19, symbol G)
# Type: in vivo, green foxtail (Setaria viridis)
# Conditions: amount of applied herbicide 320 g/ha
# Procedure, shortened: as §2
row,SMILES,"herbicidal effect rating, G: green foxtail"
1,CCCC(=O)Oc1c(C)nn(C)c(=O)c1-c1c(-c2ccc3c(c2)OCCO3)sc2ccccc12 [1-090],3 (Herbicidal rate of 40% or more and less than 70%)
2,COC(=O)Oc1c(C)nn(C)c(=O)c1-c1c(-c2ccc3c(c2)OCCO3)sc2ccccc12 [1-091],5 (Herbicidal rate of 90% or more (almost completely withered))
3,Cc1nn(C)c(=O)c(-c2c(-c3ccc4c(c3)OCCO4)sc3ccccc23)c1OC(=O)SC(C)(C)C [1-092],0 (Herbicidal rate of 5% or less (almost no effect))

# Test system: Japanese bulrush
# Experiment: Test Example 1: herbicidal activity, application before weed generation under submerged conditions (Table 16, symbol B)
# Type: in vivo, Japanese bulrush (Schoenoplectus juncoides)
# Conditions: 320 g/ha applied herbicide
# Procedure, shortened: as §4
row,SMILES,Herbicidal effect on B: Japanese bulrush (grade 0-5)
1,CCCC(=O)Oc1c(C)nn(C)c(=O)c1-c1c(-c2ccc3c(c2)OCCO3)sc2ccccc12 [1-090],4 (Herbicidal rate of 70% or more and less than 90%)
2,COC(=O)Oc1c(C)nn(C)c(=O)c1-c1c(-c2ccc3c(c2)OCCO3)sc2ccccc12 [1-091],4 (Herbicidal rate of 70% or more and less than 90%)
3,Cc1nn(C)c(=O)c(-c2c(-c3ccc4c(c3)OCCO4)sc3ccccc23)c1OC(=O)SC(C)(C)C [1-092],3 (Herbicidal rate of 40% or more and less than 70%)

# Test system: chickweed
# Experiment: Test Example 4: herbicidal effect by soil treatment (Table 19, symbol P)
# Type: in vivo, common chickweed (Stellaria media)
# Conditions: amount of applied herbicide 320 g/ha
# Procedure, shortened: as §2
row,SMILES,"herbicidal effect rating, P: chickweed"
1,CCCC(=O)Oc1c(C)nn(C)c(=O)c1-c1c(-c2ccc3c(c2)OCCO3)sc2ccccc12 [1-090],4 (Herbicidal rate of 70% or more and less than 90%)
2,COC(=O)Oc1c(C)nn(C)c(=O)c1-c1c(-c2ccc3c(c2)OCCO3)sc2ccccc12 [1-091],5 (Herbicidal rate of 90% or more (almost completely withered))
3,Cc1nn(C)c(=O)c(-c2c(-c3ccc4c(c3)OCCO4)sc3ccccc23)c1OC(=O)SC(C)(C)C [1-092],0 (Herbicidal rate of 5% or less (almost no effect))

# Reference: patent US20230085307A1, “PYRIDAZINONE COMPOUND AND HERBICIDE” (NISSAN CHEMICAL CORPORATION, priority 2019, published 2023)
